25 molecules from patent publication US11299487B2, “Compounds and compositions as modulators of TLR signaling” (Neuropore Therapies, Inc., priority 2019, dated 2022) can be followed below.

Bounds are passed on as bounds.

For test [1], the target named is T1, human TLR2 (Homo sapiens, UniProt O60603).
T1 construct: host or cells: HEK-Blue hTLR2 (HEK-293)
In words: HEK-Blue hTLR2 antagonism assay (SEAP reporter) with agonist Pam2CSK4 (TLR2/6 agonist). The format is cell-based. The conditions noted are these: HEK-Blue hTLR2 cells, ~3×EC50 Pam2CSK4, 18 h, SEAP OD 655 nm, 8-point dilutions. The procedure: (§1) Synthetic diacylated lipoprotein (Pam2CSK4, TLR2/6 agonist) and synthetic triacylated lipoprotein (Pam3CSK4, TLR1/2 agonist) were obtained from InvivoGen and were dissolved in endotoxin-free water to a concentration 1 mg/mL, vortexed until complete solubilization, and stored in aliquots at −20° C. Prior to addition to cells, an aliquot of the dissolved ligand was vortexed shortly and then was diluted in medium to 25 ng/mL Pam2CSK4 or 1000 ng/mL Pam3CSK4.
(§2) Test compounds were solubilized fresh to 10-20 mM stocks in DMSO and sonicated for 5-10 minutes in a water bath sonicator. Serial dilutions were prepared in DMSO, and then diluted in medium. The final concentration of DMSO used in the assay was 1%.
(§3) HEK-Blue hTLR2 reporter cells (InvivoGen) are HEK-293 cells stably expressing both the human TLR2 gene and a secreted embryonic alkaline phosphatase (SEAP) reporter construct downstream of NFκB promotor sites. HEK-Blue hTLR2 reporters were cultured according to manufacturer's protocol using Dulbecco's Modified Eagle Medium (DMEM; Gibco) containing 1× GlutaMax (Gibco), 10% heat-inactivated Fetal Bovine Serum (Gibco), Pen-Strep (50 U/mL penicillin, 50 μg/mL streptomycin, Gibco), 100 μg/mL Normocin (InvivoGen), and the selective antibiotic, 1×HEK-Blue Selection (InvivoGen). Quanti-Blue reagent (InvivoGen) for detection and quantification of secreted alkaline phosphatase was dissolved in 100 mL of endotoxin-free water, warmed to 37° C. for 30 minutes and then filtered using a 0.2 μm membrane.
(§4) On day 1, 50 μL of each test compound dilution in duplicates or a vehicle control was added to each well of a 96-well plate followed by addition of 150 μL of HEK-Blue hTLR2 cell suspension (1×10^5 cells/well) and incubated at 37° C./5% CO2 for 2 h. Next, 50 μL of an approximate 3×EC50 concentration of each agonist (Pam2CSK4 or Pam3CSK4) was added to the wells containing test compounds or the vehicle control. The plates were then incubated at 37° C./5% CO2 for 18 h. For each assay run, non-treated HEK-Blue hTLR2 cells were treated with serial dilutions of agonists to determine EC50 values for the respective run.
(§5) On day 2, secreted alkaline phosphatase (SEAP) activity was detected in cell culture supernatants. In brief, 20 μL was collected from each well and transferred to a 96-well plate. Next, 200 μL of Quanti-Blue detection reagent was added to each well. Plates were incubated at room temperature for 15 min. and SEAP activity was assessed by spectrophotometer OD reading at 655 nm. […] IC50 values were calculated based on 8-point dilutions for each compound.

For test [2], the target named is T1, human TLR2. In words: HEK-Blue hTLR2 antagonism assay (SEAP reporter) with agonist Pam3CSK4 (TLR1/2 agonist). Type of test: cell-based. The note with it: HEK-Blue hTLR2 cells, ~3×EC50 Pam3CSK4, 18 h, SEAP OD 655 nm, 8-point dilutions. The procedure:
as §1, §2, §3, §4, §5

T1 sequence (O60603 21-784): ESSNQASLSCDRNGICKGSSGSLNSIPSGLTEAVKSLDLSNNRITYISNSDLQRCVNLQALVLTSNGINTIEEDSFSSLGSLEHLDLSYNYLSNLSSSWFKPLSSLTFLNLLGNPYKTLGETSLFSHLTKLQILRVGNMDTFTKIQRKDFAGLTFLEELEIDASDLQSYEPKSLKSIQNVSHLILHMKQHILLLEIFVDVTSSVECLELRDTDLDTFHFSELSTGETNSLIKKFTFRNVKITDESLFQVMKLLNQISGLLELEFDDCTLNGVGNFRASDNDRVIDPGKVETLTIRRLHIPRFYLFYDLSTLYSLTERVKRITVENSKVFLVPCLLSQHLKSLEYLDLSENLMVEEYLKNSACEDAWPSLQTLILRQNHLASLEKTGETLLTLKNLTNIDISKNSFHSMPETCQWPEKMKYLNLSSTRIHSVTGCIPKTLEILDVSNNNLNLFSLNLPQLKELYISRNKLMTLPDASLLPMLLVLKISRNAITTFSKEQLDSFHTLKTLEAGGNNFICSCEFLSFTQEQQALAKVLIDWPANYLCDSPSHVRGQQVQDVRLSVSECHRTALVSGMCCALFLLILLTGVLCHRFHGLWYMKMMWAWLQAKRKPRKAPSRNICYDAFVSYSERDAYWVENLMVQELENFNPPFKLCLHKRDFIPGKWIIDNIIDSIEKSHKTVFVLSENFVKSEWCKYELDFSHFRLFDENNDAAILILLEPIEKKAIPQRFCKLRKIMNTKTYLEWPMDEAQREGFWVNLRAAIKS

On to `O=Cc1cc(-c2cn(-c3cccc(N4CCCC4)c3)nn2)cc(F)c1O` [Compound A45, 3-fluoro-2-hydroxy-5-(1-(3-(pyrrolidin-1-yl)phenyl)-1H-1,2,3-triazol-4-yl)benzaldehyde], for which the IC50 at human TLR2 [1] (Table A) and on human TLR2 [2] (Table A) was 1.3 µM each time.

As to `O=Cc1cc(-c2ccc(-c3ccc(N4CCCC4)cc3)s2)cc(F)c1O` [Compound A50, 3-fluoro-2-hydroxy-5-(5-(4-(pyrrolidin-1-yl)phenyl)thiophen-2-yl)benzaldehyde], the IC50 on human TLR2 [1] (Table A) is 4.1 µM; at human TLR2 [2] (Table A) it was 0.9 µM.

On to `O=Cc1cc(-c2ncc(-c3ccccc3)o2)cc(F)c1O` [Compound A89, 3-fluoro-2-hydroxy-5-(5-phenyloxazol-2-yl)benzaldehyde], for which the IC50 on human TLR2 [1] (Table A) and at human TLR2 [2] (Table A) was more than 100 µM each time.

`O=Cc1cc(-c2nc(-c3ccccc3)co2)cc(F)c1O` [Compound A90, 3-fluoro-2-hydroxy-5-(4-phenyloxazol-2-yl)benzaldehyde]: the IC50 on human TLR2 [1] (Table A) is 6.5 µM; at human TLR2 [2] (Table A), 4.5 µM.

On to `O=Cc1cc(-c2csc(-c3ccc(Cl)cc3)n2)cc(F)c1O` [Compound A92, 5-(2-(4-chlorophenyl)thiazol-4-yl)-3-fluoro-2-hydroxybenzaldehyde], for which the IC50 at human TLR2 [1] (Table A) worked out at 3.5 µM; on human TLR2 [2] (Table A), 0.9 µM.

As to `O=Cc1cc(-c2csc(-c3ccc(N4C[C@H]5CCC[C@H]5C4)cc3)n2)cc(F)c1O` [Compound A97, 3-fluoro-5-(2-(4-((3aR,6aS)-hexahydrocyclopenta[c]pyrrol-2(1H)-yl)phenyl)thiazol-4-yl)-2-hydroxybenzaldehyde], the IC50 on human TLR2 [1] (Table A) is 0.9 µM; on human TLR2 [2] (Table A), 0.3 µM.

For `Cc1nc(-c2ccc(N3CCCC3)cc2)sc1-c1cc(F)c(O)c(C=O)c1` [Compound A98, 3-fluoro-2-hydroxy-5-(4-methyl-2-(4-(pyrrolidin-1-yl)phenyl)thiazol-5-yl)benzaldehyde], the IC50 on human TLR2 [1] (Table A) was found to be 1.4 µM; at human TLR2 [2] (Table A), 1 µM.

`O=Cc1cc(-c2cnc(-c3ccccc3)s2)ncc1O` [Compound A99, 5-hydroxy-2-(2-phenylthiazol-5-yl)isonicotinaldehyde]: the IC50 on human TLR2 [1] (Table A) turned out to be 3.3 µM; on human TLR2 [2] (Table A) it was 2.2 µM.

For `CC1(C)CCN(c2ccc(-c3nsc(-c4cc(F)c(O)c(C=O)c4)n3)cc2)C1` [Compound A100, 5-(3-(4-(3,3-dimethylpyrrolidin-1-yl)phenyl)-1,2,4-thiadiazol-5-yl)-3-fluoro-2-hydroxybenzaldehyde], the results for the IC50 at human TLR2 [1] (Table A) and on human TLR2 [2] (Table A) were 1.4 µM and 0.6 µM, respectively.

As to `O=Cc1cc(-c2cnc(-c3cccc(N4CCCC4)c3)s2)cc(F)c1O` [Compound A101, 3-fluoro-2-hydroxy-5-(2-(3-(pyrrolidin-1-yl)phenyl)thiazol-5-yl)benzaldehyde], the concentration for half-maximal inhibition (IC50) at human TLR2 [1] (Table A) stood at 3.2 µM; on human TLR2 [2] (Table A), 1 µM.

With `O=Cc1cc(-c2cnc(-c3ccc(N4CCCC4)nc3)s2)cc(F)c1O` [Compound A102, 3-fluoro-2-hydroxy-5-(2-(6-(pyrrolidin-1-yl)pyridin-3-yl)thiazol-5-yl)benzaldehyde], the IC50 stood at 1.9 µM at human TLR2 [1] (Table A) and 1 µM at human TLR2 [2] (Table A).

`Cc1nc(-c2cccc(N3CCCC3)c2)sc1-c1cc(F)c(O)c(C=O)c1` [Compound A103, 3-fluoro-2-hydroxy-5-(4-methyl-2-(3-(pyrrolidin-1-yl)phenyl)thiazol-5-yl)benzaldehyde]: the IC50 at human TLR2 [1] (Table A) came out at 3.9 µM; at human TLR2 [2] (Table A), 1.3 µM.

Regarding `Cc1nc(-c2ccc(N3CCCC3)nc2)sc1-c1cc(F)c(O)c(C=O)c1` [Compound A104, 3-fluoro-2-hydroxy-5-(4-methyl-2-(6-(pyrrolidin-1-yl)pyridin-3-yl)thiazol-5-yl)benzaldehyde], the figures for the IC50 at human TLR2 [1] (Table A) and at human TLR2 [2] (Table A) were 6.8 µM and 3.9 µM, respectively.

As for `CC1(C)CCN(c2ccc(-c3csc(-c4cc(F)c(O)c(C=O)c4)n3)cc2)C1` [Compound A105, 5-(4-(4-(3,3-dimethylpyrrolidin-1-yl)phenyl)thiazol-2-yl)-3-fluoro-2-hydroxybenzaldehyde], the IC50 at human TLR2 [1] (Table A) amounted to 1.9 µM; at human TLR2 [2] (Table A), 0.5 µM.

`O=Cc1cc(-c2cnc(-c3ccc(N4CCCC4)cc3)s2)ncc1O` [Compound A112, 5-hydroxy-2-(2-(4-(pyrrolidin-1-yl)phenyl)thiazol-5-yl)isonicotinaldehyde]: the IC50 at human TLR2 [1] (Table A) stood at 0.3 µM; at human TLR2 [2] (Table A), 0.2 µM.

Turning to `O=Cc1cc(-c2cnc(-c3cnc(N4CCCC4)c(C(F)(F)F)c3)s2)cc(F)c1O` [Compound A114, 3-fluoro-2-hydroxy-5-(2-(6-(pyrrolidin-1-yl)-5-(trifluoromethyl)pyridin-3-yl)thiazol-5-yl)benzaldehyde], the figures for the IC50 at human TLR2 [1] (Table A) and at human TLR2 [2] (Table A) were 0.7 µM and 0.4 µM, respectively.

Turning to `O=Cc1cc(-c2cnc(-c3ccc(N4CC5(CCC5)C4)cc3)s2)cc(F)c1O` [Compound A116, 5-(2-(4-(2-azaspiro[3.3]heptan-2-yl)phenyl)thiazol-5-yl)-3-fluoro-2-hydroxybenzaldehyde], the results for the IC50 on human TLR2 [1] (Table A) and on human TLR2 [2] (Table A) were 1.3 µM and 0.6 µM, respectively.

Consider `O=Cc1cc(-c2csc(-c3ccc(N4CCCC4)nc3)n2)cc(F)c1O` [Compound A123, 3-fluoro-2-hydroxy-5-(2-(6-(pyrrolidin-1-yl)pyridin-3-yl)thiazol-4-yl)benzaldehyde], for which the IC50 on human TLR2 [1] (Table A) was determined as 1.7 µM; at human TLR2 [2] (Table A), 1.5 µM.

As to `O=Cc1cc(-c2csc(-c3cccc(N4CCCC4)c3)n2)cc(F)c1O` [Compound A124, 3-fluoro-2-hydroxy-5-(2-(3-(pyrrolidin-1-yl)phenyl)thiazol-4-yl)benzaldehyde], the figures for the IC50 on human TLR2 [1] (Table A) and at human TLR2 [2] (Table A) were 1.7 µM and 1 µM, respectively.

In the case of `O=Cc1cc(-c2nsc(-c3cccc(N4CCCC4)c3)n2)cc(F)c1O` [Compound A125, 3-fluoro-2-hydroxy-5-(5-(3-(pyrrolidin-1-yl)phenyl)-1,2,4-thiadiazol-3-yl)benzaldehyde], the IC50 on human TLR2 [1] (Table A) was found to be 3.3 µM; on human TLR2 [2] (Table A), 2 µM.

For `O=Cc1cc(-c2csc(-c3ccc(N4CCCCC4)nc3)n2)cc(F)c1O` [Compound A126, 3-fluoro-2-hydroxy-5-(2-(6-(piperidin-1-yl)pyridin-3-yl)thiazol-4-yl)benzaldehyde], the concentration for half-maximal inhibition (IC50) on human TLR2 [1] (Table A) amounted to 1.1 µM; at human TLR2 [2] (Table A), 0.6 µM.

With `O=Cc1cc(-c2cnc(-c3ccc(N4CCCCC4)nc3)s2)cc(F)c1O` [Compound A127, 3-fluoro-2-hydroxy-5-(2-(6-(piperidin-1-yl)pyridin-3-yl)thiazol-5-yl)benzaldehyde], the IC50 stood at 1.2 µM on human TLR2 [1] (Table A) and 0.7 µM at human TLR2 [2] (Table A).

For the molecule `O=Cc1cc(C#Cc2ccc(N3CCCCC3)cc2)cc(F)c1O` [Compound B2, 3-fluoro-2-hydroxy-5-((4-(piperidin-1-yl)phenyl)ethynyl)benzaldehyde], the 50% inhibitory concentration (IC50) on human TLR2 [1] (Table B) worked out at 0.5 µM; at human TLR2 [2] (Table B), 0.3 µM.

Turning to `O=Cc1c(O)cc(C#Cc2ccc(N3CCCCC3)cc2)cc1F` [Compound B5, 2-fluoro-6-hydroxy-4-((4-(piperidin-1-yl)phenyl)ethynyl)benzaldehyde], the IC50 was found to be 1.9 µM at human TLR2 [1] (Table B) and 1.1 µM at human TLR2 [2] (Table B).

For the molecule `O=Cc1c(O)cc(C#Cc2ccc(N3CCOCC3)cc2)cc1F` [Compound B6, 2-fluoro-6-hydroxy-4-((4-morpholinophenyl)ethynyl)benzaldehyde], the IC50 on human TLR2 [1] (Table B) was determined as 3.8 µM; on human TLR2 [2] (Table B), 1.8 µM.

For orientation: IC50 means the concentration needed to halve the response being measured.
